Experiments:
[1] = system: composite spore suspension of A. alternata, B. cinerea and C. gloeosporioides on red raspberries; assay: Fungal growth on inoculated raspberry fruit exposed to volatile compounds; details: 0.4 μl/ml vapor, 10 days, 10° C.; mean, 0 = no fungi present, 3 = fruit completely covered by fungal mycelia
Procedure: (§1) Fungal cultures of A. alternata and B. cinerea were obtained from the Agricultural Research Service, NRRL Culture Collection in Peoria, Ill. […] An isolate of C. gloeosporioides pathogenic on blueberries was obtained from the USDA/ARS Cranberry and Blueberry Research Center, Chatsworth, N.J. All cultures were maintained at 24° C. and 95% relative humidity on V-8 juice agar supplemented with 0.3% CaCO3 and adjusted to pH 5.8. Spores of each fungus were removed from sporulating cultures by carefully brushing the surface of the media with a glass rod and suspending the spores in sterile water. The concentrations of spores in the suspensions were adjusted to concentrations of 10^6 to 10^7 spores/ml. These suspensions were mixed together to form a composite suspension which was used to inoculate all the fruit in a given experiment.
(§2) Untreated red raspberries (cv. `Heritage`) and strawberries (cv. `Ozark Beauty`) were harvested and used the same day. Berries were selected on the basis of uniform size, color, firmness, and absence of evidence of defects or diseases.
(§3) A bioassay system was developed to test the effects of the volatile compounds on fungal growth both on intact fruit and on V-8 juice medium. The apparatus consisted of 75 ml glass jars into which either fruit or sterilized V-8 juice medium (10 ml) were added. […]

[2] = system: composite spore suspension of A. alternata, B. cinerea and C. gloeosporioides on strawberries; assay: Fungal growth on inoculated strawberry fruit exposed to volatile compounds; details: 0.4 μl/ml vapor, 10 days, 10° C.; mean, 0 = no fungi present, 3 = fruit completely covered by fungal mycelia
Procedure: as §1, §2, §3

[3] = system: red raspberries (cv. `Heritage`); assay: Fruit damage rating of inoculated raspberry fruit exposed to volatile compounds; design: species or system Rubus idaeus L.; details: 0.4 μl/ml vapor, 10 days, 10° C.; mean, 0 = intact, undamaged fruit, 3 = whole fruit necrotic and watersoaked
Procedure: as §2
(§4) A bioassay system was developed to test the effects of the volatile compounds on fungal growth both on intact fruit and on V-8 juice medium. The apparatus consisted of 75 ml glass jars into which either fruit or sterilized V-8 juice medium (10 ml) were added. These jars were placed in 275 ml airtight glass jars with aluminum foil cap liners. The bottom of each 275 ml jar was fitted with a 5.5 cm filter paper disk (Whatman No. 1) for application of the appropriate amount of test compound. The total gas headspace in the larger jars after the addition of all components was 250 ml.
(§5) Red raspberries and strawberries were rinsed with sterile distilled water and allowed to dry before inoculation. The fruit was sprayed with the spore suspension to runoff. Single red raspberries or strawberries were placed in the 75 ml jars, and 100 μl each of a single test compound was added to the filter paper on the bottom of a 275 ml jar. The 275 ml jar was then sealed. Fruit were kept at 10° C. in the dark for 10 days then rated for development of fungi and for damage to the fruit due to the treatments. […]

[4] = system: strawberries (cv. `Ozark Beauty`); assay: Fruit damage rating of inoculated strawberry fruit exposed to volatile compounds; design: species or system Fragaria ananassa, Duchesne; details: 0.4 μl/ml vapor, 10 days, 10° C.; mean, 0 = intact, undamaged fruit, 3 = whole fruit necrotic and watersoaked
Procedure: as §2, §4, §5

A. alternata [5] = assay: Treatment of isolated cultures with 2-nonanone vapor; type: cell-based, Alternaria alternata; details: 7 days, 10° C., 0 = no growth, 4 = media completely covered
Procedure: as §1, §4
(§6) The fungi assayed against included B. cinerea, C. gloeosporioides and A. alternata. The compound was bioassayed as a volatile using the apparatus described in Example 1 by placing 7 mm diameter plugs of mycelia from actively-growing 1 week-old cultures on V-8 juice media in the 75 ml jars, with the appropriate amount (0, 5, 10, 25 or 100 μl ) of compound applied to the filter paper on the bottom of the larger jar. Assuming complete volatilization, these amounts would produce a nonanone concentration within the headspace of 0.02, 0.04, 0.10, and 0.40 μL/ml, respectively. The sealed jars were then placed in a growth chamber in the dark at 10° C. for 7 days. Due to growth of fungi limited to the plug in many cases and the difficulty of accurately measuring the fungal growth in the jars, a rating system was developed as follows: 0, no growth of fungi, including on plug; 1, growth on plug only; 2, small amount of fungal growth on medium; 3, most of medium covered with fungal mycelia; and 4, all of medium covered. The treatment was replicated three times and the data were treated by statistical analysis of variance.

B. cinerea [6] = assay: as above; type: cell-based, Botrytis cinerea; details: 7 days, 10° C., 0 = no growth, 4 = media completely covered
Procedure: as §1, §4, §6

C. gloeosporioides [7] = assay: as above; type: cell-based, Colletotrichum gloeosporioides; details: 7 days, 10° C., 0 = no growth, 4 = media completely covered
Procedure: as §1, §4, §6

A. alternata [8] = assay: Radial growth of cultures with 2-nonanone in the growth medium; type: cell-based; details: Alternaria alternata, read-out: Fungal Growth (% of control), A. alternata
Procedure: as §1, with “experiment. 2-Nonanone was assayed as a medium component by adding an appropriate amount to cooled V-8 juice media in 9.0 cm plastic petri dishes. Experiments were initiated by placing 7 mm plugs of mycelia in the center of the petri dishes. As the cultures were nearly circular, the radii (from the inoculum plug to one typical point on the growing margin) of the cultures were measured and expressed as a percentage of the control. The treatment was replicated five times and the data were treated by analysis of variance.” for “experiment.”

B. cinerea [9] = assay: as above; type: cell-based; details: Botrytis cinerea, read-out: Fungal Growth (% of control), B. cinerea
Procedure: as §1, with “experiment. 2-Nonanone was assayed as a medium component by adding an appropriate amount to cooled V-8 juice media in 9.0 cm plastic petri dishes. Experiments were initiated by placing 7 mm plugs of mycelia in the center of the petri dishes. As the cultures were nearly circular, the radii (from the inoculum plug to one typical point on the growing margin) of the cultures were measured and expressed as a percentage of the control. The treatment was replicated five times and the data were treated by analysis of variance.” for “experiment.”

C. gloeosporioides [10] = assay: as above; type: cell-based; details: Colletotrichum gloeosporioides, read-out: Fungal Growth (% of control), C. gloeosporioides
Procedure: as §1, with “experiment. 2-Nonanone was assayed as a medium component by adding an appropriate amount to cooled V-8 juice media in 9.0 cm plastic petri dishes. Experiments were initiated by placing 7 mm plugs of mycelia in the center of the petri dishes. As the cultures were nearly circular, the radii (from the inoculum plug to one typical point on the growing margin) of the cultures were measured and expressed as a percentage of the control. The treatment was replicated five times and the data were treated by analysis of variance.” for “experiment.”

rat = details: cited from earlier work

Compound: CCCCCCCC(C)=O [2-Nonanone, 2-nonanone]
- Fungal Rating, Raspberry [1]: 0.0
- Fungal Rating, Strawberry [2]: 0.0
- Fruit damage rating, Raspberry [3]: 2.0
- Fruit damage rating, Strawberry [4]: 1.7
- Fungal Growth Rating, A. alternata (A. alternata [5]; vapor phase 0.02 μl/ml): 2.7
- Fungal Growth Rating, A. alternata (A. alternata [5]; vapor phase 0.04 μl/ml): 1.3
- Fungal Growth Rating, A. alternata (A. alternata [5]; vapor phase 0.10 μl/ml): 0.0
- Fungal Growth Rating, A. alternata (A. alternata [5]; vapor phase 0.40 μl/ml): 0.0
- Fungal Growth Rating, B. cinerea (B. cinerea [6]; vapor phase 0.02 μl/ml): 1.0
- Fungal Growth Rating, B. cinerea (B. cinerea [6]; vapor phase 0.04 μl/ml): 0.0
- Fungal Growth Rating, B. cinerea (B. cinerea [6]; vapor phase 0.10 μl/ml): 0.0
- Fungal Growth Rating, B. cinerea (B. cinerea [6]; vapor phase 0.40 μl/ml): 0.0
- Fungal Growth Rating, C. gloeosporioides (C. gloeosporioides [7]; vapor phase 0.02 μl/ml): 2.0
- Fungal Growth Rating, C. gloeosporioides (C. gloeosporioides [7]; vapor phase 0.04 μl/ml): 0.6
- Fungal Growth Rating, C. gloeosporioides (C. gloeosporioides [7]; vapor phase 0.10 μl/ml): 0.0
- Fungal Growth Rating, C. gloeosporioides (C. gloeosporioides [7]; vapor phase 0.40 μl/ml): 0.0
- activity at 0.01 % (A. alternata [8]; 0.01% in V-8 juice medium): 85.2%
- activity at 0.1 % (A. alternata [8]; 0.10% in V-8 juice medium): 48.7%
- activity at 1 % (A. alternata [8]; 1.00% in V-8 juice medium): 0%
- activity at 0.01 % (B. cinerea [9]; 0.01% in V-8 juice medium): 100%
- activity at 0.1 % (B. cinerea [9]; 0.10% in V-8 juice medium): 83%
- activity at 1 % (B. cinerea [9]; 1.00% in V-8 juice medium): 0%
- activity at 0.01 % (C. gloeosporioides [10]; 0.01% in V-8 juice medium): 100%
- activity at 0.1 % (C. gloeosporioides [10]; 0.10% in V-8 juice medium): 95.7%
- activity at 1 % (C. gloeosporioides [10]; 1.00% in V-8 juice medium): 0%
- oral rat LD50 (rat): 3200 mg/kg
